Data from the supplement of paper PMC10307832.

Columns and labels:
Assay in all cases: relative viability (nuclei count vs DMSO), 5 days (fraction); higher = more cells survive
MK-8033 + Olaparib = compound: Cn1cc(-c2cnc3ccc4ccc(CS(=O)(=O)NCc5ccccn5)cc4c(=O)c3c2)cn1 [MK-8033] + O=C(c1cc(Cc2n[nH]c(=O)c3ccccc23)ccc1F)N1CCN(C(=O)C2CC2)CC1 [Olaparib] (partner 8 µM)
In short: (§1)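 Relative viability divides the nuclei count in treated wells by that in vehicle wells. Lung cancer cell lines were seeded in 1536-well plates, dosed by pin tool the next day, and fixed and stained after 5 days in one step with final 0.05% Triton X-100, 1% formaldehyde and 1 ug/ml Hoechst. Dosing was a single drug or a fixed anchor-drug dose plus five library-drug doses (not always all listed) in √10 steps, and values are medians of duplicate plates imaged at 4×.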

Irinotecan + OSI-027 = compound: CCc1c2c(nc3ccc(OC(=O)N4CCC(N5CCCCC5)CC4)cc13)-c1cc3c(c(=O)n1C2)COC(=O)[C@]3(O)CC [Irinotecan] + COc1cccc2cc(-c3nc([C@H]4CC[C@H](C(=O)O)CC4)n4ncnc(N)c34)[nH]c12 [OSI-027] (partner 0.5 µM)
In short: as §1

Irinotecan + Olaparib = compound: CCc1c2c(nc3ccc(OC(=O)N4CCC(N5CCCCC5)CC4)cc13)-c1cc3c(c(=O)n1C2)COC(=O)[C@]3(O)CC [Irinotecan] + O=C(c1cc(Cc2n[nH]c(=O)c3ccccc23)ccc1F)N1CCN(C(=O)C2CC2)CC1 [Olaparib] (partner 8 µM)
In short: as §1

MK-8033 + Pictilisib = compound: Cn1cc(-c2cnc3ccc4ccc(CS(=O)(=O)NCc5ccccn5)cc4c(=O)c3c2)cn1 [MK-8033] + CS(=O)(=O)N1CCN(Cc2cc3nc(-c4cccc5[nH]ncc45)nc(N4CCOCC4)c3s2)CC1 [Pictilisib] (partner 1 µM)
In short: as §1

Cell Line	relative viability (MK-8033 + Olaparib; first compound 0.02 µM)	relative viability (MK-8033 + Olaparib; first compound 0.06325 µM)	relative viability (MK-8033 + Olaparib; first compound 0.2 µM)	relative viability (MK-8033 + Olaparib; first compound 0.6325 µM)	relative viability (MK-8033 + Olaparib; first compound 2 µM)	relative viability (Irinotecan + OSI-027; first compound 0.6325 µM)	relative viability (Irinotecan + OSI-027; first compound 2 µM)	relative viability (Irinotecan + OSI-027; first compound 6.325 µM)	relative viability (Irinotecan + OSI-027; first compound 20 µM)	relative viability (Irinotecan + Olaparib; first compound 0.6325 µM)	relative viability (Irinotecan + Olaparib; first compound 2 µM)	relative viability (Irinotecan + Olaparib; first compound 6.325 µM)	relative viability (Irinotecan + Olaparib; first compound 20 µM)	relative viability (MK-8033 + Pictilisib; first compound 0.02 µM)	relative viability (MK-8033 + Pictilisib; first compound 0.06325 µM)	relative viability (MK-8033 + Pictilisib; first compound 0.2 µM)	relative viability (MK-8033 + Pictilisib; first compound 0.6325 µM)	relative viability (MK-8033 + Pictilisib; first compound 2 µM)
NCI-H2342	0.448	0.393	0.507	0.424	0.418	0.58	0.551	0.607	0.439	0.412	0.386	0.352	0.384	–	–	–	–	–
NCI-H1299	1.01	0.967	0.927	1	0.982	–	–	–	–	0.539	0.478	0.337	0.207	0.759	0.862	0.748	0.799	0.617
NCI-H1650	0.808	0.646	0.688	0.797	0.713	–	0.902	0.575	0.196	0.722	0.436	0.296	0.139	0.601	0.469	0.646	0.527	0.544
NCI-H647	0.7	0.476	0.479	0.661	0.515	0.564	0.634	0.277	0.183	0.194	0.205	0.14	0.0986	0.444	0.421	0.398	0.41	0.471
NCI-H1944	0.402	0.365	0.39	0.39	0.415	0.22	0.349	0.165	0.161	0.287	0.221	0.198	0.182	0.35	–	0.347	0.346	0.34
NCI-H23	0.295	0.307	0.221	–	0.332	0.327	0.603	0.176	0.288	0.245	0.254	0.207	0.2	0.377	0.397	0.378	0.561	0.384
NCI-H1792	0.451	0.448	0.337	0.351	0.3	0.7	0.617	0.456	0.231	0.332	0.327	0.198	0.298	0.256	0.188	0.346	0.269	0.212
HCC-78	0.717	0.82	0.739	0.505	0.775	0.37	0.35	0.229	0.235	0.492	0.332	0.233	0.343	0.237	0.152	0.253	–	0.245
NCI-H358	0.561	0.553	0.577	0.715	0.57	0.715	0.377	0.217	0.125	0.215	0.286	0.158	0.109	0.306	0.344	0.331	0.395	0.227
NCI-H520	0.306	0.326	0.357	0.307	0.315	0.292	0.316	0.218	0.192	0.23	0.277	0.309	0.145	0.28	0.221	0.295	0.283	0.323
BEN	1.13	1.01	0.986	0.985	1.01	0.296	0.271	0.31	0.255	0.681	0.53	0.425	0.528	0.583	0.454	0.499	0.594	0.541
A-427	0.778	0.722	0.623	0.818	0.676	–	0.315	0.244	0.227	0.718	0.551	0.271	0.104	0.676	0.7	0.677	0.734	0.644
NCI-H1648	0.841	–	0.748	0.765	0.574	0.238	0.242	0.255	0.268	0.525	0.388	0.35	0.276	–	–	–	–	–
NCI-H1703	0.385	0.304	0.524	0.336	0.598	–	–	–	–	0.512	0.375	0.169	0.164	0.238	0.244	0.255	0.223	0.248
NCI-H1563	–	–	–	–	–	0.704	0.843	0.865	0.589	–	–	–	–	0.617	0.63	0.648	0.659	0.705
NCI-H1623	–	–	–	–	–	0.415	0.415	0.303	0.294	–	–	–	–	–	–	–	–	–
Calu-6	0.601	0.559	0.553	0.582	0.548	–	–	–	–	0.258	0.326	0.225	0.128	0.947	0.766	0.899	0.85	0.975
IA-LM	0.749	0.764	0.786	0.756	0.767	–	–	–	–	0.537	0.177	0.166	0.0811	0.356	0.273	0.293	0.286	0.289
NCI-H522	0.544	0.491	0.607	0.685	0.632	1.07	0.643	0.645	0.569	0.493	0.532	0.453	0.525	–	–	–	–	–
SW 900	0.851	0.876	0.852	0.788	0.812	0.298	0.632	0.4	0.424	–	0.474	0.334	0.384	–	–	–	–	–
A549	0.34	0.275	0.267	0.305	0.336	–	–	–	–	0.073	0.186	0.0779	0.0719	0.519	0.491	0.387	0.47	0.409
